Results as given in patent US8088930B2, “Benzimidazole derivatives” (Hoffmann-La Roche Inc., priority 2008, dated 2012).
Where two headings read alike, the source gives them in different places.

Molecular target: T1, FXR ligand binding domain (GST-FXR LBD fusion protein, human FXR aa 193-473) (Homo sapiens, UniProt Q96RI1)
T1 construct: fused on or other part: Glutathione-S-transferase (GST) fused N-terminally to the FXR LBD, used to capture the protein on glutathione SPA beads
T1 sequence (Q96RI1 211-486 limits assumed): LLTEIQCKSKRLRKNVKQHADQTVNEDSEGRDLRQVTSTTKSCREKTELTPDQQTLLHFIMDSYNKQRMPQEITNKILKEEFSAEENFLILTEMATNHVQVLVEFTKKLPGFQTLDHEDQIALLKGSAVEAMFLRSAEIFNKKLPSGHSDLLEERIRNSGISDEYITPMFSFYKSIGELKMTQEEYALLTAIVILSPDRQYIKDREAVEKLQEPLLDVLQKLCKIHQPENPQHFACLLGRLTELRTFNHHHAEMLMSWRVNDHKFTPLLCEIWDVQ
Test: Radioligand binding assay (scintillation proximity, radioligand displacement)
Conditions: 40 nM GST-FXR LBD on SPA beads, test compound 6×10^−9 M to 2.5×10^−5 M
Experimental: The following tests were carried out in order to determine the activity of the compounds of formula (I).
To accomplish this, the portions of the sequences encoding the FXR LBD were amplified by polymerase chain reaction (PCR) from a full-length clone by PCR and then subcloned into the plasmid vectors. The final clone was verified by DNA sequence analysis.
The induction, expression, and subsequent purification of GST-LBD fusion protein was performed in E. coli strain BL21(pLysS) cells by standard methods (Current Protocols in Molecular Biology, Wiley Press, ed. Ausubel et al.).
Radioligand Binding Assay
Binding of test substances to the FXR ligand binding domain was assessed in a radioligand displacement assay. The assay was performed in a buffer consisting of 50 mM Hepes, pH 7.4, 10 mM NaCl, 5 mM MgCl2, 0.01% CHAPS. For each reaction well in a 96-well plate, 40 nM of GST-FXR LBD fusion protein was bound to 10 μg glutathione yttrium silicate SPA beads (Pharmacia Amersham) in a final volume of 50 μl by shaking. A radioligand (e.g., 20 nM of 2,N-dicyclohexyl-2-[2-(2,4 dimethoxy-phenyl)-benzoimidazol-1-yl]-acetamide) and test compounds were added, and scintillation proximity counting was performed. All binding assays were performed in 96-well plates and the amount of bound ligand was measured on a Packard TopCount using OptiPlates (Packard).

| Structure (SMILES) | IC50 (read-out: h-IC50 Binding) [nM] | IC50 (h-IC50 Binding) [nM] |
| --- | --- | --- |
| CC(C)(Oc1c(F)cc(-c2nnn[nH]2)cc1F)C(C1CCCCC1)n1c(-c2ccc(Cl)cc2)nc2cc(F)c(F)cc21 (single isomer, unassigned) [Example 115, (+) or (−)-2-(4-Chloro-phenyl)-1-[1-cyclohexyl-2-[2,6-difluoro-4-(1H-tetrazol-5-yl)-phenoxy]-2-methyl-propyl]-5,6-difluoro-1H-benzoimidazole] | 2 | – |
| O=C(O)C1CCC(NCC(C2CCCCC2)n2c(-c3ccc(Cl)cc3)nc3cc(F)c(F)cc32)CC1 (single isomer, unassigned) [Example 137, (+) or (−)-4-{2-[2-(4-Chloro-phenyl)-5,6-difluoro-benzoimidazol-1-yl]-(2-cis-cyclohexyl-ethylamino}-cyclohexanecarboxylic acid] | 6100 | – |
| O=C(O)C1CCC(NCC(C2CCCCC2)n2c(-c3ccc(Cl)cc3)nc3cc(F)c(F)cc32)CC1 (single isomer, unassigned) [Example 138, (+) or (−)-4-{2-[2-(4-Chloro-phenyl)-5,6-difluoro-benzoimidazol-1-yl]-(2-trans-cyclohexyl-ethylamino}-cyclohexanecarboxylic acid] | 300 | – |
| O=C(O)c1ccc(OCC(C2CCCCC2)n2c(-c3ccc(Cl)cc3)nc3cc(F)c(F)cc32)cc1 (single isomer, unassigned; (+)) [Example 5, (+)-4-{2-[2-(4-Chloro-phenyl)-5,6-difluoro-benzoimidazol-1-yl]-2-cyclohexyl-ethoxy}-benzoic acid] | – | 40 |
| O=C(O)c1ccc(OCC(C2CCCCC2)n2c(-c3ccc(Cl)cc3)nc3cc(F)c(F)cc32)c(F)c1 (single isomer, unassigned; (+)) [Example 9, (+)-4-{2-[2-(4-Chloro-phenyl)-5,6-difluoro-benzoimidazol-1-yl]-2-cyclohexyl-ethoxy}-3-fluoro-benzoic acid] | 100 | – |
| Cc1cc(C(=O)O)ccc1OCC(C1CCCCC1)n1c(-c2ccc(Cl)cc2)nc2cc(F)c(F)cc21 (single isomer, unassigned; (+)) [Example 13, (+)-4-{2-[2-(4-Chloro-phenyl)-5,6-difluoro-benzoimidazol-1-yl]-2-cyclohexyl-ethoxy}-3-methyl-benzoic acid] | 100 | – |
| O=C(O)c1ccc(OCC(C2CCCCC2)n2c(-c3ccc(Cl)cc3)nc3cc(F)c(F)cc32)nc1 (single isomer, unassigned; (+)) [Example 20, (+)-6-{2-[2-(4-Chloro-phenyl)-5,6-difluoro-benzoimidazol-1-yl]-2-cyclohexyl-ethoxy}-nicotinic acid] | 30 | – |
| O=C(O)c1cnc(OCC(C2CCCCC2)n2c(-c3ccc(Cl)cc3)nc3cc(F)c(F)cc32)c(Cl)c1 (single isomer, unassigned; (+)) [Example 23, (+)-5-Chloro-6-{2-[2-(4-chloro-phenyl)-5,6-difluoro-benzoimidazol-1-yl]-2-cyclohexyl-ethoxy}-nicotinic acid] | 20 | – |
| O=C(O)c1cnc(OCC(C2CCCCC2)n2c(-c3ccc(Cl)cc3)nc3cc(F)c(F)cc32)c2ccsc12 (single isomer, unassigned; (+)) [Example 27, (+)-4-{2-[2-(4-Chloro-phenyl)-5,6-difluoro-benzoimidazol-1-yl]-2-cyclohexyl-ethoxy}-thieno[3,2-c]pyridine-7-carboxylic acid] | 300 | – |
| O=C(O)c1ccc(OCC(C2CCCCC2)n2c(-c3ccc(Cl)cc3)nc3cc(F)c(F)cc32)c(C(F)(F)F)c1 (single isomer, unassigned; (+)) [Example 40, (+)-4-{2-[2-(4-Chloro-phenyl)-5,6-difluoro-benzoimidazol-1-yl]-2-cyclohexyl-ethoxy}-3-trifluoromethyl-benzoic acid] | 100 | – |
| O=C(O)c1c(F)cc(OCC(C2CCCCC2)n2c(-c3ccc(Cl)cc3)nc3cc(F)c(F)cc32)cc1F (single isomer, unassigned; (+)) [Example 43, (+)-4-{2-[2-(4-Chloro-phenyl)-5,6-difluoro-benzoimidazol-1-yl]-2-cyclohexyl-ethoxy}-2,6-difluoro-benzoic acid] | 700 | – |
| CC(C)(Oc1ccc(OCC(C2CCCCC2)n2c(-c3ccc(Cl)cc3)nc3cc(F)c(F)cc32)nc1)C(=O)O (single isomer, unassigned; (+)) [Example 48, (+)-2-(6-{2-[2-(4-Chloro-phenyl)-5,6-difluoro-benzoimidazol-1-yl]-2-cyclohexyl-ethoxy}-pyridin-3-yloxy)-2-methyl-propionic acid] | 500 | – |
| O=C(O)C1(Oc2ccc(OCC(C3CCCCC3)n3c(-c4ccc(Cl)cc4)nc4cc(F)c(F)cc43)nc2)CC1 (single isomer, unassigned; (+)) [Example 52, (+)-1-(6-{2-[2-(4-Chloro-phenyl)-5,6-difluoro-benzoimidazol-1-yl]-2-cyclohexyl-ethoxy}-pyridin-3-yloxy)-cyclopropanecarboxylic acid] | 80 | – |
| Cc1cc(C(=O)O)cc(C)c1OCC(C1CCCCC1)n1c(-c2ccc(Cl)cc2)nc2cc(F)c(F)cc21 (single isomer, unassigned; (+)) [Example 54, (+)-4-{2-[2-(4-Chloro-phenyl)-5,6-difluoro-benzoimidazol-1-yl]-2-cyclohexyl-ethoxy}-3,5-dimethyl-benzoic acid] | 100 | – |
| Fc1cc2nc(-c3ccc(Cl)cc3)n(C(COc3ccc(-c4nnn[nH]4)cn3)C3CCCCC3)c2cc1F (single isomer, unassigned; (+)) [Example 62, (+)-2-(4-Chloro-phenyl)-1-{1-cyclohexyl-2-[5-(1H-tetrazol-5-yl)-pyridin-2-yloxy]-ethyl}-5,6-difluoro-1H-benzoimidazole] | 200 | – |
| O=C(O)c1ccc(COCC(C2CCCCC2)n2c(-c3ccc(Cl)cc3)nc3cc(F)c(F)cc32)c(F)c1 (single isomer, unassigned; (+)) [Example 64, (+)-4-{2-[2-(4-Chloro-phenyl)-5,6-difluoro-benzoimidazol-yl]-2-cyclohexyl-ethoxymethyl}-3-fluoro-benzoic] | 300 | – |
| O=C(O)c1ccc(COCC(C2CCCCC2)n2c(-c3ccc(Cl)cc3)nc3cc(F)c(F)cc32)cc1 (single isomer, unassigned; (+)) [Example 69, (+)-4-{2-[2-(4-Chloro-phenyl)-5,6-difluoro-benzoimidazol-1-yl]-2-cyclohexyl-ethoxymethyl}-benzoic acid] | 700 | – |
| Cc1cc(-c2nnn[nH]2)cc(C)c1OCC(C1CCCCC1)n1c(-c2ccc(Cl)cc2)nc2cc(F)c(F)cc21 (single isomer, unassigned; (+)) [Example 72, (+)-2-(4-Chloro-phenyl)-1-{1-cyclohexyl-2-[2,6-dimethyl-4-(1H-tetrazol-5-yl)-phenoxy]-ethyl}-5,6-difluoro-1H-benzoimidazole] | 1 | – |
| COc1ccc(-c2nc3cc(F)c(F)cc3n2C(COc2ccc(C(=O)O)cn2)C2CCCCC2)c(OC)n1 (single isomer, unassigned; (+)) [Example 74, (+)-6-{2-Cyclohexyl-2-[2-(2,6-dimethoxy-pyridin-3-yl)-5,6-difluoro-benzoimidazol-1-yl]-ethoxy}-nicotinic acid] | 500 | – |
| O=C(O)c1cc(F)c(OCC(C2CCCCC2)n2c(-c3ccc(Cl)cc3)nc3cc(F)c(F)cc32)c(Cl)c1 (single isomer, unassigned; (+)) [Example 78, (+)-3-Chloro-4-{2-[2-(4-chloro-phenyl)-5,6-difluoro-benzoimidazol-1-yl]-2-cyclohexyl-ethoxy}-5-fluoro-benzoic acid] | 30 | – |
| Fc1cc2nc(-c3ccc(Cl)cc3)n(C(COc3ccc(-c4nnn[nH]4)cc3F)C3CCCCC3)c2cc1F (single isomer, unassigned; (+)) [Example 80, (+)-2-(4-Chloro-phenyl)-1-{1-cyclohexyl-2-[2-fluoro-4-(1H-tetrazol-5-yl)-phenoxy]-ethyl}-5,6-difluoro-1H-benzoimidazole] | 50 | – |
| COc1ccc(-c2nc3cc(F)c(F)cc3n2C(COc2c(C)cc(C(=O)O)cc2C)C2CCCCC2)c(OC)n1 (single isomer, unassigned; (+)) [Example 83, (+)-4-{2-Cyclohexyl-2-[2-(2,6-dimethoxy-pyridin-3-yl)-5,6-difluoro-benzoimidazol-1-yl]-ethoxy}-3,5-dimethyl-benzoic acid] | 0.2 | – |
| O=C(O)c1cc(F)c(OCC(C2CCCCC2)n2c(-c3ccc(Cl)cc3)nc3cc(F)c(F)cc32)c(F)c1 (single isomer, unassigned; (+)) [Example 87, (+)-4-{2-[2-(4-Chloro-phenyl)-5,6-difluoro-benzoimidazol-1-yl]-2-cyclohexyl-ethoxy}-3,5-difluoro-benzoic acid] | 40 | – |
